Data published in patent publication US11389414B2, “Methods for treating atherosclerosis with gamma-ketoaldehyde scavengers” (Vanderbilt University, priority 2017, dated 2022).

Experiments:
macrophages = experiment: In vitro modification of LDL with MDA, then macrophage cholesterol content; format: cell-based; conditions: 2-HOBA present during LDL (5 mg/mL) modification with MDA (10 mM); versus vehicle; LDL with macrophages 24 h
Description: Modification of HDL and LDL with MDA: MDA was prepared immediately before use by rapid acid hydrolysis of maloncarbonyl bis-(dimethylacetal) as described. Briefly, 20 μL of 1 M HCl was added to 200 μL of maloncarbonyl bis-(dimethylacetal), and the mixture was incubated for 45 min at room temperature. The MDA concentration was determined by absorbance at 245 nm, using the coefficient factor 13, 700 M-1 cm-1. HDL (10 mg of protein/mL) and increasing doses of MDA (0, 0.125 mM, 0.25 mM, 0.5 mM, 1 mM) were incubated at 37° C. for 24 h in 50 mM sodium phosphate buffer (pH7.4) containing DTPA 100 μM. Reactions were initiated by adding MDA and stopped by dialysis of samples against PBS at 4° C. LDL (5 mg/mL) was modified in vitro with MDA (10 mM) in the presence of vehicle alone or with 2-HOBA at […] for 24 h in 50 mM sodium phosphate buffer (pH7.4) containing DTPA 100 μM. Reactions were initiated by adding MDA and stopped by dialysis of samples against PBS at 4° C. The LDL samples were incubated for 24 h with macrophages and the cholesterol content of the cells was measured using an enzymatic cholesterol assay as described.

MDA-LDL adducts = experiment: Plasma MDA-LDL sandwich ELISA; format: in vivo, mouse; conditions: western diet 16 weeks
Description: (§1) Mice: Ldlr^−/− and WT on C57BL/6 background mice were obtained from the Jackson Laboratory. Animal protocols were performed according to the regulations of Vanderbilt University's Institutional Animal Care and Usage Committee. Mice were maintained on chow or a Western-type diet containing 21% milk fat and 0.15% cholesterol (Teklad). Eight week old, female mice were pretreated mice with vehicle alone (Water) or containing either 1 g/L of 4-HOBA or 1 g/L of 2-HOBA. After two weeks, the mice continued to receive treatment and were administered a Western diet for 16 weeks to induce hypercholesterolemia and atherosclerosis.
(§2) Measurement of MDA-LDL, MDA-HDL, and MDA-ApoAI: Sandwich ELISA was used to measure plasma MDA-LDL and MDA-HDL levels following the manufacturer's instructions (Cell BioLabs, Inc.). Briefly, isolated LDL or HDL samples and MDA-HDL standards were added onto anti-MDA coated plates, and after blocking, the samples were incubated with biotinylated anti-apoB or anti-ApoAI primary antibody. The samples were then incubated for 1 h with streptavidin-enzyme conjugate and 15 min with substrate solution. After stopping the reaction, the O.D. was measured at 450 nm wavelength. MDA-ApoAI was detected in mouse plasma by immunoprecipitation of ApoAI and western blotting. […] Proteins were visualized and quantitated by Odyssey 3.0 Quantification software (LI-COR).

aortic endothelial cells = experiment: H2O2 induced apoptosis, Annexin V staining, endothelial cells; format: cell-based, mouse; conditions: 250 μM H2O2, 24 h; compared to vehicle or 4-HOBA
Description: (§3) Cell Culture: Peritoneal macrophages were isolated from mice 72 hours post injection of 3% thioglycollate and maintained in DMEM plus 10% fetal bovine serum (FBS, Gibco) as previously described. Human aortic endothelial cells (HAECs) were obtained from Lonza and maintained in endothelial cell basal medium-2 plus 1% FBS and essential growth factors (Lonza).
(§4) In vitro Cellular Apoptosis and Analysis of Lesion Apoptosis and Efferocytosis: Cell apoptosis was induced as indicated and detected by fluorescent labeled Annexin V staining and quantitated by either Flow Cytometry (BD 5 LSRII) or counting Annexin V positive cells in images captured under a fluorescent microscope. The apoptotic cells in atherosclerotic lesion were measured by TUNEL staining of cross-sections of atherosclerotic proximal aorta as previously described. The TUNEL positive cells not associated with live macrophages were considered free apoptotic cells and macrophage-associated apoptotic cells were considered phagocytosed as a measure of lesion efferocytosis as previously described.

[1] = tested on: MDA content of proximal aortic atherosclerotic lesions in Ldlr^−/− mice; experiment: MDA immunofluorescence of proximal aortic atherosclerotic lesions; format: in vivo, mouse
Description: as §1
(§5) Atherosclerosis Analyses and Cross-section Immunofluorescence Staining: The extent of atherosclerosis was examined both in Oil-Red-O-stained cross-sections of the proximal aorta and by en face analysis using the KS300 imaging system (Kontron Elektronik GmbH). For immunofluorescence staining, 5 μm cross-sections of the proximal aorta were fixed in cold acetone (Sigma), blocked in Background Buster (Innovex), incubated with indicated primary antibodies (MDA and CD68) at 4° C. for overnight. After incubation with fluorescent labeled secondary antibodies at 37 C for 1 hour, the nucleus was counter stained with Hoechst. Images were captured with a fluorescence microscope (Olympus IX81) and SlideBook 6 (Intelligent-Image) software and quantitated using ImageJ software (NIH).

[2] = background statement; cited from earlier work
[3] = tested on: atherosclerotic lesions of Ldlr^−/− mice; experiment: Masson's Trichrome staining of lesions (collagen content, fibrous cap thickness, necrotic core); format: in vivo, mouse
Description: as §1
Masson's Trichrome Staining: Masson's Trichrome Staining was applied for measurement of atherosclerotic lesion collagen content, fibrous cap thickness and necrotic core size following the manufacture's instruction (Sigma) and as previously described. Briefly, 5 μm cross-sections of proximal atherosclerotic aorta root were fixed with Bouin's solution, stained with hematoxylin for nuclei (black), biebrich scarlet and phosphotungstic/phosphomolybdic acid for cytoplasm (red), and aniline blue for collagen (blue). Images were captured and analyzed for collagen content, atherosclerotic cap thickness and necrosis core by ImageJ software as described earlier.

[4] = background statement; cited from earlier work; remark: listed apart in the source
MDA-HDL adducts = experiment: Plasma MDA-HDL sandwich ELISA; format: in vivo, mouse; conditions: western diet 16 weeks
Description: as §1, §2

[5] = tested on: ApoE−/− macrophage foam cells; experiment: Capacity of HDL isolated from treated mice to reduce macrophage cholesterol; format: cell-based, mouse; conditions: HDL 25 μg protein/ml, 24 h
Description: as §1
HDL Isolation from Mouse Plasma and Measurement of HDL Capacity to Reduce Macrophage Cholesterol: HDL was isolated from mouse plasma using HDL Purification Kit (Cell BioLabs, Inc.) following the manufacturer's protocol. Briefly, apoB containing lipoproteins and HDL were sequentially precipitated with dextran sulfate. The HDL was then resuspended and washed. After removing the dextran sulfate, the HDL was dialyzed against PBS. To measure the capacity of the HDL to reduce macrophage cholesterol, apoE^−/− macrophages were cholesterol enriched by incubation for 48 h in DMEM containing 100 μg protein/ml of acetylated LDL. […] Cellular cholesterol was measured before and after incubation with HDL using an enzymatic cholesterol assay as described.

[6] = tested on: hypercholesterolemic Ldlr^−/− mice; experiment: Atherosclerosis analysis (Oil-Red-O proximal aorta cross-sections and en face aorta) in western diet fed mice; format: in vivo, mouse; conditions: western diet 16 weeks; for reduction of atherosclerosis, en face analysis of the aorta / reduction of the extent of proximal aortic atherosclerosis: 1 g/L in water
Description: as §1, §5

[7] = Body weight and plasma total cholesterol and triglyceride levels of treated mice; format: in vivo, mouse; conditions: compared to vehicle or 4-HOBA; data not shown
Description: as §1

peritoneal macrophages = experiment: Macrophage inflammatory response, real time PCR of IL-1β, IL-6, TNF-α mRNA; format: cell-based, mouse; conditions: oxidized LDL, 24 h
Description: as §3
RNA Isolation and Real-Time RT-PCR: Total RNA was extracted and purified using Aurum Total RNA kit (Bio-Rad) according to the manufacturer's protocol. Complementary DNA was synthesized with iScript reverse transcriptase (Bio-Rad). Relative quantitation of the target mRNA was performed using specific primers, SYBR probe (Bio-Rad), and iTaqDNA polymerase (Bio-Rad) on IQ5 thermocylcer (Bio-Rad) and normalized with 18S, as described earlier. 18S, IL-1β and TNF-α primers used were as described earlier.

MDA-apoAI adducts = experiment: Plasma apoAI immunoprecipitation and western blotting for MDA-apoAI and apoAI; format: in vivo, mouse; conditions: western diet 16 weeks
Description: as §1
Measurement of MDA-LDL, MDA-HDL, and MDA-ApoAI: Sandwich ELISA was used to measure plasma MDA-LDL and MDA-HDL levels following the manufacturer's instructions (Cell BioLabs, Inc.). Briefly, isolated LDL or HDL samples and MDA-HDL standards were added onto anti-MDA coated plates, and after blocking, the samples were incubated with biotinylated anti-apoB or anti-ApoAI primary antibody. The samples were then incubated for 1 h with streptavidin-enzyme conjugate and 15 min with substrate solution. After stopping the reaction, the O.D. was measured at 450 nm wavelength. MDA-ApoAI was detected in mouse plasma by immunoprecipitation of ApoAI and western blotting. Briefly, 50 μl of mouse plasma were prepared with 450 μL of IP Lysis Buffer (Pierce) plus 0.5% protease inhibitor mixture (Sigma), and immunoprecipitated with 10 μg of polyclonal antibody against mouse ApoAI (Novus). Then 25 μL of magnetic beads (Invitrogen) was added, and the mixture was incubated for 1 h at 4° C. with rotation. The magnetic beads were then collected, washed three times, and SDS-PAGE sample buffer with β-mercaptoethanol was added to the beads. After incubation at 70° C. for 5 min, magnetic field was applied to the Magnetic Separation Rack (New England), and the supernatant was used for detecting mouse ApoAI or MDA. For Western blotting, 30-60 μg of proteins was resolved by NuPAGE Bis-Tris electrophoresis (Invitrogen), and transferred onto nitrocellulose membranes (Amersham Bioscience). Membranes were probed with primary rabbit antibodies specific for ApoAI (Novus) or MDA (Cell signaling) and fluorescent tagged IRDye 680 (LI-COR) secondary antibody. Proteins were visualized and quantitated by Odyssey 3.0 Quantification software (LI-COR).

[8] = tested on: atherosclerotic lesions of Ldlr^−/− mice; experiment: Lesion apoptosis (TUNEL) and efferocytosis in proximal aorta sections; format: in vivo, mouse
Description: as §1, §4

primary macrophages = experiment: H2O2 induced apoptosis, Annexin V staining, macrophages; format: cell-based, mouse; conditions: 250 μM H2O2, 24 h; compared to vehicle or 4-HOBA
Description: as §3, §4

[9] = background statement; cited from earlier work; remark: listed apart in the source
[10] = summary value, compared to vehicle or 4-HOBA
[11] = in contrast to vehicle or 4-HOBA
[12] = compared to Ldlr−/− mice consuming a chow diet

NCc1ccccc1O [2-HOBA, 2-hydroxybenzylamine]
ability of MDA modified LDL to increase cholesterol accumulation in macrophages (macrophages): reduced | reduction of plasma MDA-LDL levels (MDA-LDL adducts; compared to 4-HOBA): 54% | reduction of plasma MDA-LDL levels (MDA-LDL adducts; compared to vehicle): 57% | number of apoptotic cells in endothelial cell cultures (aortic endothelial cells): markedly decreased | reduction of MDA levels in the proximal aorta ([1]; compared to 4-HOBA): 66.8% | reduction of MDA levels in the proximal aorta ([1]; compared to vehicle alone): 68.5% | reaction with lipid monocarbonyls [2]: not with lipid monocarbonyls | increase of collagen content of the proximal aorta ([3]; compared to 4-HOBA): 2.6 fold | increase of collagen content of the proximal aorta ([3]; compared to vehicle): 2.7 fold | increased collagen content ([3]; summary value): 2.7 fold | increased fibrous cap thickness ([3]; summary value): 2.1 fold | reduction in necrotic core ([3]; summary value, p<0.01): 69% | decrease of % necrotic area in the proximal aorta ([3]; versus 4-HOBA): 73.5% | fibrous cap thickness, fold greater ([3]; versus 4-HOBA treated mice): 2.29 fold | decrease of % necrotic area in the proximal aorta ([3]; versus vehicle): 74.8% | fibrous cap thickness, fold greater ([3]; versus vehicle treated mice): 2.31 fold | reaction with lipid dicarbonyls (dicarbonyl scavenger) [4]: rapidly reacts | reduction of plasma MDA-HDL levels (MDA-HDL adducts; compared to 4-HOBA): 56% | reduction of plasma MDA-HDL levels (MDA-HDL adducts; compared to vehicle): 57% | efficiency of HDL from treated mice at reducing cholesterol stores in macrophage foam cells, fold ([5]; versus 4-HOBA treated mice): 1.7 fold | efficiency of HDL from treated mice at reducing cholesterol stores in macrophage foam cells, fold ([5]; versus vehicle treated mice): 2.2 fold | reduction of atherosclerosis, en face analysis of the aorta ([6]; compared to 4-HOBA): 59.1% | reduction of the extent of proximal aortic atherosclerosis ([6]; compared to 4-HOBA): 31.5% | reduction of atherosclerosis, en face analysis of the aorta ([6]; compared to vehicle): 60.3% | reduction of the extent of proximal aortic atherosclerosis ([6]; compared to vehicle): 31.1% | decrease of atherosclerosis in en face aortas [6, 10]: 60% | decrease of atherosclerosis in the proximal aortas [6, 10]: 31% | effect on body weight [7]: did not affect | IL-1β mRNA level (peritoneal macrophages): significantly reduced | IL-6 mRNA level (peritoneal macrophages): significantly reduced | TNF-α mRNA level (peritoneal macrophages): significantly reduced | plasma MDA-apoAI adducts (MDA-apoAI adducts; [11]): dramatically reduced | plasma apoAI levels (MDA-apoAI adducts; [11]): increased | number of TUNEL positive cells not associated with macrophages, fold increase (efferocytosis) ([8]; 4-HOBA treated mice versus 2-HOBA treated mice): 2.0 fold | reduction of the number of TUNEL positive cells in the proximal aortic lesion ([8]; compared to 4-HOBA): 72.4% | reduction of the number of TUNEL positive cells in the proximal aortic lesion ([8]; compared to vehicle): 72.9% | reduction of the number of atherosclerotic lesion TUNEL positive cells ([8]; summary value, compared to 4-HOBA or vehicle treated mice): 72% | number of TUNEL positive cells not associated with macrophages, fold increase (efferocytosis) ([8]; vehicle treated mice versus 2-HOBA treated mice): 1.9 fold | number of apoptotic cells in macrophage cultures (primary macrophages): markedly decreased | oral bioavailability [9]: orally bioavailable

NCc1ccc(O)cc1 [4-HOBA, 4-hydroxybenzylamine, reference compound]
reaction with lipid dicarbonyls (dicarbonyl scavenger) [4]: ineffective | atheroprotection ([6]; Ldlr−/− mice): not atheroprotective | plasma apoAI levels (MDA-apoAI adducts; [12]): reduced | plasma levels of MDA-apoAI (MDA-apoAI adducts; [12]): markedly increased | oral bioavailability [9]: orally bioavailable
